Data as given in patent publication US20090307791A1, “CALCIUM-ACTIVATED CHLORIDE CHANNEL AND METHODS OF USE THEREOF” (priority 2008, published 2009).

Legend:
endogenous CaCCs = assay: NFA inhibition of IP3-induced Ca2+ activated Cl- currents, two electrode voltage clamp, Xenopus oocytes; format: cell-based, Xenopus laevis
Description: (§1) For experiments involving TMEM16 constructs, capped cRNA was in vitro transcribed from linearized plasmids using the mMessage mMachine kit (Ambion). Female Axolotls and Xenopus laevis were purchased from the Ambystoma Genetic Stock Center and Nasco respectively. Oocytes from these animals were defoliculated by treatment with collagenase prepared as described. Usually 5 ng of cRNA (50 ng for mRNA) was injected into defolliculated oocytes. Oocytes were kept at 17° C. in ND96 solution (96 mM NaCl, 2 mM KCl, 1.8 mM CaCl2, 1 mM MgCl2, 10 mM HEPES [pH 7.4]). Two-electrode voltage-clamp measurements were performed at room temperature 2-4 days after injection using a GeneClamp500 amplifier (Axon Instruments) and pClamp 8.0 software (Axon Instruments). Oocytes used in photolysis experiments were injected with […] of 100 μM caged inositol trisphosphate [myo-inositol 1,4,5-trisphosphate, P4(5)-1-(2-nitrophenyl)ethyl ester] (Molecular Probes) at least 1 h before recording, and kept in dark until usage. For flash photolysis light derived from a mercury arc lamp was guided by a fused silica fiber (Oriel) to the top of oocytes in the recording chamber. Flash time was controlled via electronic shutter.
Currents were usually recorded in Ca^2+ free ND96 solution (96 mM NaCl, 2 mM KCl, 3 mM MgCl2, 10 mM HEPES [pH 7.4]). Solutions for Cl^−/gluconate replacement experiments were prepared from appropriate mixtures of solutions containing high Cl^− (95 mM NaCl, 1 mM KCl, 2 mM MgCl2, 10 mM HEPES [pH 7.4]) and solutions containing high gluconate (95 mM NaGluconate, 1 mM KCl, 2 mM MgCl2, 10 mM HEPES [pH 7.4]). In other permeability experiments solutions containing 90 NaX, 2 KCl, 4 MgCl, 10 mM HEPES [pH 7.4] with X=Cl^−, Br^−, I^− or SCN^− were used. […] The permeability ratios were calculated from shifts in reversal potential ΔErev using the Goldman-Hodgkin-Katz Equation in the form: PX/PCl=(γ·[Cl^−](1)−[Cl^−](2))/[X^−](2) were [Cl^−](1), [Cl^−](2) and [X^−](2) are the external Cl^− and X^− concentration before and after solution exchange. […]

xTMEM16A = assay: NFA inhibition of IP3-induced CaCC currents, two electrode voltage clamp, Axolotl oocytes injected with xTMEM16A cRNA; format: cell-based; conditions: Axolotl oocytes expressing xTMEM16A, 30 μM NFA, long lasting current
Description: as §1, with “(Molecular Probes) at least 1 h before recording, and kept in dark until usage. For flash photolysis light derived from a mercury arc lamp was guided by a fused silica fiber (Oriel) to the top of oocytes in the recording chamber. Flash time was controlled via electronic shutter.” left out
Currents were usually recorded in Ca^2+ free ND96 solution (96 mM NaCl, 2 mM KCl, 3 mM MgCl2, 10 mM HEPES [pH 7.4]). […] The permeability ratios were calculated from shifts in reversal potential ΔErev using the Goldman-Hodgkin-Katz Equation in the form: PX/PCl=(γ·[Cl^−](1)−[Cl^−](2))/[X^−](2) were [Cl^−](1), [Cl^−](2) and [X^−](2) are the external Cl^− and X^− concentration before and after solution exchange. […]

CaCC = assay: Ca2+ evoked current in A23187 treated Xenopus oocytes; format: cell-based; conditions: Ca2+ 5 mM
Description: as §1
FIGS. 2A-f. Carbachol and Ca^2+ evoked current responses in different oocytes. […]

Compound | effect on decay of the residual CaCC current (endogenous CaCCs; 30 μM NFA) | effect on IP3-induced CaCC current amplitude (endogenous CaCCs; 30 μM NFA, 1 min perfusion, ND96) | reversibility after removal of NFA (endogenous CaCCs; after 5 min ND96 wash) | effect on amplitude of a CaCC current of long duration (xTMEM16A) | CaCC activation by A23187 then high calcium solution (CaCC)
O=C(O)c1cccnc1Nc1cccc(C(F)(F)F)c1 [NFA, niflumic acid] | slowed the decay of the residual current | reduced the IP3-induced CaCC current | restored both the amplitude and the kinetics of the CaCC current | barely reduced in amplitude | 
CNc1ccc2oc(C[C@H]3O[C@@]4(CC[C@H]3C)O[C@H]([C@H](C)C(=O)c3ccc[nH]3)[C@H](C)C[C@H]4C)nc2c1C(=O)O [A23187] |  |  |  |  | resulted in CaCC activation
